Data taken from patent US20100029615A1, “BENZIMIDAZOLE DERIVATIVES” (priority 2006, published 2010).

Biological target: T1, SMO (Mus musculus, UniProt P56726)
T1 construct: endogenous in cells; host or cells: C3H10T1/2 (ATCC #CCL-226)
Assay: Smoothened (SMO)/Sonic Hedgehog (SHh) Transient Transcriptional Activation Assay (Gli-luciferase reporter in C3H10T1/2 cells)
Assay type: cell-based, murine
Conditions: 2 uM test compound, SHh 250 ng/ml, 20 hrs
Method: As noted above, the compounds of the invention are useful as inhibitors of SMO. Methods for determining the in vitro activity of these compounds are described below: Smoothened (SMO)/Sonic Hedgehog (SHh) Transient Transcriptional Activation Assay
On Day 1,2×10^6 C3H10T1/2 cells (ATCC #CCL-226) were split and seeded in 12 mls of growth medium Basal Medium Eagle (BME, Invitrogen #21010-046) supplemented with 2 mM L-glutamine (Invitrogen #25030-081), 0.1 units/ml penicillin and 0.1 ug/ml streptomycin (Invitrogen #15140-122), and 10% Fetal Bovine Serum (FBS, Invitrogen #16140-071) in a T-75 flask (Costar #3376). They were allowed to attach for 4 hours at 37° C., 5% CO2. The cells were then transfected using Fugene 6 (Roch #11 814 443 001) in the following reaction: 48 ul Fugene 6 and 745 ul Opti-MEM (Invitrogen #31985-070) were mixed and allowed to sit at room temperature for 5 minutes. 8 ug of pGL4.14/mGli(CS) DNA (10× murine Gli response elements and minimal CS promoter) and 0.5 ug of pEGFP DNA (Clontech) were added, gently mixed and incubated at room temperature for 20 minutes. This entire transfection mix was then added to the T-75 flask containing the cells. The cells were incubated at 37 °C, 5% C02 for 18-24 hrs.
On Day 2, the transfected cells were trypsinized and seeded into white 96 well plates (Costar #3917) in 100ul/well of growth medium at a concentration of 20,000 cells/well. The cells were allowed to recover for 4 hrs before adding serum starvation medium Dulbecco's Modified Eagle Medium (DMEM, Invitrogen #21063-029) supplemented with 2 mM L-glutamine, 0.1 units/ml penicillin and 0.1 ug/ml streptomycin, and 0.5% Calf Serum (CS, Invitrogen #26170-043). The growth media was aspirated off, and the cells were rinsed with 100 ul of starvation media. 95 ul of starvation media was then added to each well. The cells were incubated for 20 hrs at 37 °C, 5% C02.
On Day 3, cells were dosed with test compounds at a final concentration ranging from 2 uM to 2 nM. Immediately after dosing cells with compounds, recombinant human sonic hedgehog (SHh, R&D Systems #1845-SH) was add to a final concentration of 250 ng/ml. A 25 ug vial of SHh was reconstituted with 250 ul PBS/0.1% BSA to give a 100 ng/ul working stock. This working stock was then diluted 1:20 in starvation media. The transfected cells were incubated with compounds and SHh for 20 hrs at 37 °C, 5% C02.
Luciferase assays were conducted on Day 4 using Dual-Glo Luciferase assay system (Promega #E2940) according to Promega's protocol. Briefly, Dual-Glo luciferase reagent was made up and 100 uls were added to each well of the 96 well plate containing media. Plates were shaken at room temperature for 10 minutes, and then read on TopCount (Perkin-Elmer). The luminescence was recorded.

T1 sequence (P56726 33-793): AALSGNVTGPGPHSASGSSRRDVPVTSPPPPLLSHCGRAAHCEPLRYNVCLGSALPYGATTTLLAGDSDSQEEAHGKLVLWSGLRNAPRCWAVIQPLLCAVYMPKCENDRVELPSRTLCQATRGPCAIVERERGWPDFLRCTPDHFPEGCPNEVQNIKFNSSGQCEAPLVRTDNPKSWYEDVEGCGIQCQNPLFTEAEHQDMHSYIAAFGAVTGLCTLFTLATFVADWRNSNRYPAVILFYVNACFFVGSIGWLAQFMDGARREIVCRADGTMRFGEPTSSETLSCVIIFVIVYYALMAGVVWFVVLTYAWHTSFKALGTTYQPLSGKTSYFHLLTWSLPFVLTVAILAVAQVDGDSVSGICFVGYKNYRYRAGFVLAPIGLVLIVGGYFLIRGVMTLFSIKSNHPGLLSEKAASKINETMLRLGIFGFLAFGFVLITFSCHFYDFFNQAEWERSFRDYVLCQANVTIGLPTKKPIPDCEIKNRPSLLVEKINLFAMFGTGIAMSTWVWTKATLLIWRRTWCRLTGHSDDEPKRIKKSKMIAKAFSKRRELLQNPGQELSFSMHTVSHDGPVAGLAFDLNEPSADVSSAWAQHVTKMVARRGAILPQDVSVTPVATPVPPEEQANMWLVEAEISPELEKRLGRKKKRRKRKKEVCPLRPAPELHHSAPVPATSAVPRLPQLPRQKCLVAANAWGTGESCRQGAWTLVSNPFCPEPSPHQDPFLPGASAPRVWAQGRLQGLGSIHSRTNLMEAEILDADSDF

SMILES | SMO % inhibition at 2 uM [%]
COc1cc(OC)cc(C(=O)NC2CCCC(c3nc4cc(C(=O)N(C)C)ccc4[nH]3)C2)c1 (single isomer, unassigned) [Example 8, 2-(3-(3,5-dimethoxybenzamido)cyclohexyl)-N,N-dimethyl-1H-benzo[d]imidazole-5-carboxamides (cis- and trans-isomers)] | 68

Same assay, conditions: C3H 10T1/2, 2 uM test compound, SHh 250 ng/ml, 20 hrs, read-out: SMO % inhibition at 2 uM

SMILES | inhibition at 2 µM [%]
COc1cc(OC)cc(C(=O)NC2CCCC(c3nc4ccccc4n3CCO)C2)c1 (racemic) [Example 13, N-(3-(1-(2-Hydroxyethyl)-1H-benzo[d]imidazol-2-yl)cyclohexyl)-3,5-dimethoxybenzamide (cis-isomer)] | 98
O=C(NC1CCCC(c2nc3ccccc3[nH]2)C1)c1ccc2c(c1)OCCO2 (centres unmarked) [Example 1, N-(3-(1H-benzo[d]midazol-2-yl)cyclohexyl)-2,3-dihydrobenzo[b][1,4]dioxine-6-carboxamide] | 107
Cn1c([C@H]2CCC[C@@H](NC(=O)c3ccc4c(c3)OCCO4)C2)nc2ccccc21 [Example 3, N-((1R,3S)-3-(1-methyl-1H-benzo[d]imidazol-2-yl)cyclohexyl)-2,3-dihydrobenzo[b][1,4]dioxine-6-carboxamide] | 107
COc1cc(OC)cc(C(=O)N[C@@H]2CCC[C@H](c3nc4ccc(C(F)(F)F)cc4[nH]3)C2)c1 [Example 4, 3,5-Dimethoxy-N-((1R,3S)-3-[5-(trifluoromethyl)-1H-benzo[d]imidazol-2-yl)cyclohexyl)benzamide] | 105
COc1cc(OC)cc(C(=O)NC2CCCC(c3nc4ccc(C)cc4[nH]3)C2)c1 (centres unmarked) [Example 5, 3,5-dimethoxy-N-[3-(5-methyl-1H-benzo[d]imidazol-2-yl)cyclohexyl)benzamide] | 102
CCn1c(C2CCCC(NC(=O)c3ccc4c(c3)OCCO4)C2)nc2ccccc21 (centres unmarked) [Example 6, N-(3-(1-Ethyl-1H-benzo[d]imidazol-2-yl)cyclohexyl)-2,3-dihydrobenzo[b][1,4]dioxine-6-carboxamide] | 58
CNC(=O)c1ccc2nc([C@H]3CCC[C@@H](NC(=O)c4cc(OC)cc(OC)c4)C3)[nH]c2c1 [Example 7, 2-(3-[3,5-dimethoxybenzamido)cyclohexyl)-N-methyl-1H-benzo[d]imidazole-5-carboxamide] | 70
COc1cc(OC)cc(C(=O)NC2CCCC(c3nc4cc(NC(C)=O)ccc4[nH]3)C2)c1 (centres unmarked) [Example 9, N-(3-(5-Acetamido-1H-benzo[d]imidazol-2-yl)cyclohexyl)-3,5-dimethoxybenzamide] | 87
COc1cc(OC)cc(C(=O)NC2CCCC(c3nc4cc(NC(=O)C(C)C)ccc4[nH]3)C2)c1 (centres unmarked) [Example 10, N-(3-(5-Isobutyramido-1H-benzo[d]imidazol-2-yl)cyclohexyl)-3,5-dimethoxybenzamide] | 96
COc1cc(OC)cc(C(=O)NC2CCCC(c3nc4ccc(NS(C)(=O)=O)cc4[nH]3)C2)c1 (centres unmarked) [Example 11, 3,5-Dimethoxy-N-(3-(5-(methylsulfonamido)-1H-benzo[d]imidazol-2-yl)cyclohexyl)benzamide] | 86
COc1cc(OC)cc(C(=O)NC2CCCC(c3nc4ccc(NS(=O)(=O)C(C)C)cc4[nH]3)C2)c1 (centres unmarked) [Example 12, 3,5-Dimethoxy-N-(3-(5-(propan-2-ylsulfonamido)-1H-benzo[d]imidazol-2-yl)cyclohexyl)] | 62
CN(C(=O)c1ccc2c(c1)OCCO2)C1CCCC(c2nc3ccccc3n2C)C1 (centres unmarked) [Example 14, N-Methyl-N-(3-(1-methyl-1H-benzo[d]imidazol-2-yl)cyclohexyl)-2,3-dihydrobenzo[b][1,4]dioxine-6-carboxamide] | 95
N#CCCn1c(C2CCCC(NC(=O)c3ccc4c(c3)OCCO4)C2)nc2ccccc21 (centres unmarked) [Example 15, N-(3-(1-(2-Cyanoethyl)-1H-benzo[d]imidazol-2-yl)cyclohexyl)-2,3-dihydrobenzo[b][1,4]dioxine-6-carboxamide] | 94
COCCn1c(C2CCCC(NC(=O)c3ccc4c(c3)OCCO4)C2)nc2ccccc21 (centres unmarked) [Example 16, N-(3-(1-(2-Methoxyethyl)-1H-benzo[d]imidazol-2-yl]cyclohexyl)-2,3-dihydrobenzo[b][1,4]dioxine-6-carboxamide] | 59
COc1cc(OC)cc(C(=O)NC2CCCC(c3nc4ccc(Br)cc4[nH]3)C2)c1 (centres unmarked) [Example 17, N-(3-(5-Bromo-1H-benzo[d]imidazol-2-yl)cyclohexyl)-3,5-dimethoxybenzamide] | 103
N#Cc1ccc2nc(C3CCCC(NC(=O)c4ccc5c(c4)OCCO5)C3)[nH]c2c1 (centres unmarked) [Example 19, N-(3-(5-Cyano-1H-benzo[d]imidazol-2-yl)cyclohexyl]-2,3-dihydrobenzo[b][1,4]dioxine-6-carboxamide] | 100
Cn1c([C@@H]2CCC[C@H](NC(=O)c3ccc4c(c3)OCCO4)C2)nc2ccccc21 [Example 21, N-((1S,3R)-3-(1-Methyl-1H-benzo[d]imidazol-2-yl)cyclohexyl)-2,3-dihydrobenzo[b](1,4]dioxine-6-carboxamide] | 71
COc1cc(OC)cc(C(=O)NC2CCCC(c3nc4ccc(C(F)(F)F)cc4[nH]3)C2)c1 (centres unmarked) [Example 24, 3,5-Dimethoxy-N-(3-(6-(trifluoromethyl)-1H-benzo[d]imidazol-2-yl]cyclohexyl)benzamide] | 105
COc1cc(OC)cc(C(=O)NC2CCCC(c3nc4cc(Cl)ccc4[nH]3)C2)c1 (centres unmarked) [Example 25, N-(3-(6-Chloro-1H-benzo[d]imidazol-2-yl)cyclohexyl]-3,5-dimethoxybenzamide] | 99
COc1cc(OC)cc(C(=O)NC2CCCC(c3nc4ccc(C)cc4n3C)C2)c1 (centres unmarked) [Example 26, N-(3-(1,6-Dimethyl-1H-benzo[d]imidazol-2-yl)cyclohexyl]-3,5-dimethoxybenzamide] | 113
COc1cc(OC)cc(C(=O)NC2CCCC(c3nc4cc(C)ccc4n3C)C2)c1 (centres unmarked) [Example 27, N-(3-(1,5-Dimethyl-1H-benzo[d]imidazol-2-yl)cyclohexyl]-3,5-dimethoxybenzamide] | 84
Cc1ccc2[nH]c(C3CCCC(NC(=O)c4ccc5c(c4)OCCO5)C3)nc2c1 (centres unmarked) [Example 28, N-(3-(5-Methyl-1H-benzo[d]imidazol-2-yl)cyclohexyl]-2,3-dihydrobenzo[b][1,4]dioxine-6-carboxamide] | 103
COc1ccc2[nH]c(C3CCCC(NC(=O)c4ccc5c(c4)OCCO5)C3)nc2c1 (centres unmarked) [Example 29, N-(3-(5-Methoxy-1H-benzo[d]imidazol-2-yl)cyclohexyl]-2,3-dihydrobenzo[b][1,4]dioxine-6-carboxamide] | 102
CN(C)c1ccc2nc(C3CCCC(NC(=O)c4ccc5c(c4)OCCO5)C3)[nH]c2c1 (centres unmarked) [Example 39] | 102
COCCNc1ccc(C(=O)N[C@@H]2CCC[C@H](c3nc4ccccc4[nH]3)C2)cn1 [Example 41, N-((1R,3S)-3-(1H-Benzo-[d]imidazol-2-yl)cyclohexyl)-6-(2-methoxyethylamino)nicotinamide] | 87
COCCNc1cc(C(=O)N[C@@H]2CCC[C@H](c3nc4ccccc4[nH]3)C2)ccn1 [Example 42, N-((1R,3S)-3-(1H-Benzo[d]imidazol-2-yl)cyclohexyl)-2-(2-methoxyethylamino)isonicotinamide] | 87

Same assay, conditions: C3H 10T1/2, 2 μM test compound, SHh 250 ng/ml, 20 hrs, read-out: SMO CELL % INHIBITION @ 2 μM

SMILES | inhibition at 2 µM [%]
O=C(N[C@@H]1CCC[C@H](c2nc3ccccc3n2CCO)C1)c1ccc2c(c1)OCCO2 (stereo in doubt) [Example 71, N-{3-[1-(2-hydroxyethyl)-1H-benzimidazol-2-yl]cyclohexyl}-2,3-dihydro-1,4-benzodioxine-6-carboxamide] | 98
COc1cc(OC)cc(C(=O)N[C@@H]2CCCC(c3nc4cc(S(C)(=O)=O)ccc4[nH]3)C2)c1 (stereo in doubt) [Example 289, 3,5-dimethoxy-N-{(1R,3S)-3-[5-(methylsulfonyl)-1H-benzimidazol-2-yl]cyclohexyl} benzamide (+)-tartrate] | 81
